Values joined by “and” are separate entries in the source; they are usually repeats but may differ in a detail not shown here. Identical values can stand only once. “Also recorded” adds a separate entry of the source. Like-named read-outs stand apart in the source and are kept apart here.
Key:
[1] = tested on: human chondrocytes; conditions: cited from earlier work
[2] = tested on: NMDA-treated primary hippocampal neurons; assay: NMDA-triggered LDH release in primary hippocampal neuron culture; conditions: for effect on NMDA-triggered LDH release (in words): 10 μM, 16 h pretreatment, NMDA 100 μM, 2.5 h, compared with NMDA alone; for effect of SC144 on the protection by compounds 2 or 8 against NMDA-evoked excitotoxicity (LDH): SC144 pretreatment/co-treatment with compound 2 or 8
Description: In this study, the cytotoxicity of NMDA was quantified by measuring the activity of lactate dehydrogenase (LDH) released from the cultured neurons into the medium and confirmed by living cell density analysis using calcein staining. […] MK-801, a noncompetitive antagonist of NMDA receptor, was used as a control [Wong et al., 1986, Proc. Natl. Acad. Sci. U.S.A., 83(18):7104].
(§1) In the present study, primary cultures of hippocampal neurons from E15-16 mouse embryos (C57BL/6) were used. The culture was made according to a previously described protocol with minor modifications [Bilousova et al. 2006, J. Neurochem. 97(1):44]. Hippocampi were isolated in ice-cold D-Hanks buffer containing (in mM: NaCl 136.7, KCl 5.4, NaHCO3 4.2, KH2PO4 0.4, NaH2PO4 0.6, glucose 5.6, and pH 7.4). In order to achieve a single cell suspension, hippocampal tissues were treated with papain (0.5 μg/mL) and Dnase (0.6 μg/mL) for 20 min at 37° C., followed by mechanical dissociation in complete media (Neurobasal medium supplemented with B27 (Invitrogen), 25 μM glutamate, and 1% penicillin-streptomycin). The cells were plated on poly-DL-ornithine (0.5 mg/mL), and laminin (5 μg/mL) pre-coated 96-well plates (Costar) at density 1×10^5 cells/mL and maintained in a humidified 5% CO2 incubator at 37° C. The proliferations of non-neuronal cells were limited by 48 h treatment with cytosine arabinoside (10 μM) started on first day in vitro (DIV1). All experiments were performed at 9 DIV cells.
Hippocampal neurons isolated from embryos were cultured for 8 days before treatment with chemical modulators (compounds). […] Briefly, the cells were washed three times with prewarmed Locke's buffer containing (in mM: NaCl 154, KCl 5.6, NaHCO3 3.6, CaCl2 2.3, MgCl2 1.2, glucose 5.6, HEPES 5, and pH 7.4) to remove traces of growth medium. […] The incubation was terminated by removal of compound-containing buffer, followed by washing with prewarmed drug-free Locke's buffer containing 1 mM Mg^2+.
Assessment of cell damage was done by measuring the LDH activity in the culture medium. The experiment was performed per the manufacturer's protocol (Promega). Release LDH levels were expressed as a percentage compared with that of the DMSO control group (100%).

[3] = Pharmacokinetic study, brain and plasma levels in mice; format: in vivo, mouse; conditions: for Cmax: mouse, brain
Method: Since any potential therapeutic for AD needs to cross the blood-brain barrier (BBB), we further evaluated the brain permeability of Gp130 compound 2 in mice. Mice were dosed orally at 10 or 30 mg/kg, or injected subcutaneously (SQ) at 10 mg/kg, and euthanized after 1, 2, 4, 6, and 8 hours post-dose. […] The brain to plasma ratio for compound 2 was ˜4:1 for oral 30 mg/kg; and […] for 10 mg/kg SQ injection. Based on the oral brain levels of compound 2 we will conduct proof-of-concept testing in a mouse model of NMDA-induced toxicity in future studies.
The brain penetrance and plasma levels of compound 2 were assessed in a pharmacokinetic (PK) study comprising oral dosing (30 mg/kg and 10 mg/kg) and subcutaneous (sub-Q, 10 mkd) injection. For each route and dose, 5 adult wildtype mice received either 5 μL of a 50 mg/ml stock in 100% DMSO mixed 50:50 with flavoring to give 10 μL total for 10 mg/kg oral; or 10 μL of a 75 mg/ml stock in 100% DMSO mixed 50:50 with flavoring to give 20 μL final for 30 mg/kg oral; or were injected with 50 μL of a 5 mg/ml stock in 100% DMSO for sub-Q 10 mg/kg, Mice were euthanized by ketamine/xylazine over-anesthesia at 1, 2, 4, 6, and 8 h post-dosing, and blood collected by cardiac puncture. The mice were then perfused with saline and brain tissue dissected and snap frozen on dry ice. Blood was centrifuged at 3000 rpm for 10 min and the plasma supernatant was collected. Both plasma and the right hemi-brain were sent to Integrated Analytical Solutions (IAS, Berkeley, Calif.) with a reference sample of compound for compound level analysis in tissue and plasma. The compound levels were determined using a LC-MS/MS approach.

[4] = tested on: NMDA-treated hippocampal neurons; assay: Calcein staining, density of living neurons under NMDA-induced excitotoxicity; format: cell-based, mouse; conditions: 10 μM pretreatment, NMDA 100 μM, 2.5 h
Description: Calcein staining was employed to evaluate the density of living neurons. A highly lipophilic non-fluorescent and cell permeable compound, calcein-acetoxymethyl ester (calcein-AM) was used for staining. Calcein-AM can be converted by intracellular esterases into calcein, an anionic fluorescent form, only labeling viable cells, and thus provides both morphological and functional information about undamaged cells.
as §1
Hippocampal neurons isolated from embryos were cultured for 8 days before treatment with chemical modulators (compounds). […]
A highly lipophilic non-fluorescent and cell permeable compound, calcein-acetoxymethyl ester (calcein-AM) was used to determine cell viability. […] Fluorescent images of live cells were collected using Lionheart FX automated digital microscope equipped with 4× objective and GFP filter cube (469/525); data was processed and analyzed using Gen5 software v. […]

[5] = tested on: pTyr-STAT3 in SH-SY5Y cells; assay: pSTAT3 AlphaLISA in SH-SY5Y cells; format: cell-based, human; conditions: 30 minutes, 1 μM
Method: Accordingly, the human neuroblastoma cell line SH-SY5Y was used, known to express the IL-6 receptor, […] to determine JAK-STAT activation as reflected by increases in pSTAT3. In the studies set forth in FIG. 2, cells were treated for 30 minutes with potential agonists PA1, PA2, and PA3; and then lysates were analyzed using the Sure-Fire Perkin-Elmer AlphaLISA for pTyr-STAT3.

Brc1ccc(Nc2nc(-c3ccccc3)cs2)cc1 [Compound 1, N-(4-bromophenyl)-4-phenylthiazol-2-amine]
apoptosis of human chondrocytes [1]: reduce apoptosis of human chondrocytes
pSTAT3 [1]: increase pSTAT3

Fc1ccc(Nc2nc(-c3ccccc3)cs2)cc1 [Compound 2, N-(4-fluorophenyl)-4-phenylthiazol-2-amine]
effect on NMDA-triggered LDH release (in words) [2]: greatest decrease
effect on NMDA-triggered LDH release (in words) ([2]; listed as compound 2): rescued the LDH increase
oral brain permeability (in words) [3]: good oral brain permeability
oral bioavailability (in words) ([3]; dose of 30 mg/kg): orally bioavailable
Cmax ([3]; po, 10 mg/kg, oral 10 mg/kg, at 1 h, read-out: Cmax for brain): ~18 ng/g
Cmax ([3]; po, 30 mg/kg, oral 30 mg/kg, at 1 h post dose, read-out: Cmax for brain): ~570 nM and 156 ng/g
Cmax ([3]; po, 30 mg/kg, oral 30 mg/kg, read-out: Cmax): 570 nM
Cmax ([3]; subcutaneous, 10 mg/kg, SQ 10 mg/kg, at 2 h, read-out: Cmax for brain): 161 ng/g
density of living neurons (calcein staining) [4]: significance
density of living neurons (calcein staining) ([4]; listed as compound 2): no difference in density of living neurons
pSTAT3 levels over DMSO control [5]: increased pSTAT3

Brc1ccc(Nc2nc(-c3cccnc3)cs2)cc1 [Compound 4, N-(4-bromophenyl)-4-(pyridin-3-yl)thiazol-2-amine]
effect on NMDA-triggered LDH release (in words) [2]: greatest decrease

Fc1ccc(Nc2nc(-c3ccccc3)cs2)c(F)c1 [Compound 5, N-(2,4-difluorophenyl)-4-phenylthiazol-2-amine]
effect on NMDA-triggered LDH release (in words) [2]: greatest decrease

Fc1ccc(Nc2nc(-c3ccc(F)cc3)cs2)cc1 [Compound 8, N,4-bis(4-fluorophenyl)thiazol-2-amine]
effect on NMDA-triggered LDH release (in words) [2]: rescued LDH; also recorded: greatest decrease

C[C@]12N[C@H](Cc3ccccc31)c1ccccc12 [MK801, reference compound]
effect on NMDA-triggered LDH release (in words) [2]: rescued the LDH increase
density of living neurons (calcein staining) [4]: significance

O=C(NNc1nc2cc(F)ccc2n2cccc12)c1cnccn1 [SC144]
effect of SC144 on the protection by compounds 2 or 8 against NMDA-evoked excitotoxicity (LDH) [2]: prevented compound 2 rescue; also recorded: prevented this rescue
effect of SC144 on the protection by compounds 2 or 8 against NMDA-evoked excitotoxicity (LDH) ([2]; listed as SC-144): abated the protection

Brc1ccc(Nc2nc(-c3ccccc3)cs2)cc1 [compound 1 (PA1)]
Gp130 agonism ([1]; Shkhyan et al. submitted manuscript): Gp130 agonist

HN: 24-amino acid bioactive peptide encoded in the mitochondrial genome by the gene MT-RNR2
effect on NMDA-triggered LDH release (in words) [2]: non-significance; also recorded: only one of them was active
effect on neurons which were not treated with NMDA ([2]; no NMDA): Neither HN itself nor the compounds had effect

HNG: potent HN analog, HN with a substitution of serine 14 to glycine (MAPRGFSCLLLLTGEIDLPVKRRA; UniProt Q8IVG9 1-24, looked up, variant S14G)
effect on NMDA-triggered LDH release (in words) [2]: significance

From patent US10947207B2, “GP130 modulators” (THE REGENTS OF THE UNIVERSITY OF CALIFORNIA, priority 2016, dated 2021)
